The values that follow come from patent US5006650A, “Novel N-1 substituted beta-lactams as antibiotics” (The Upjohn Company, priority 1989, dated 1991).

Common to all, as to experiment: MIC, agar dilution in Mueller Hinton Agar
Type in all cases: cell-based
(In general: In agar dilution the substance is mixed into plates at graded concentrations.)

In test [1] the test system is Citrobacter Freundli 3507. The note with it: culture 3507, MHA, 35° C., 20 hours, read-out: Minimum Inhibitory Concentration. How it is done:
(§1) The compounds of this invention and their respective pharmacologically acceptable salts have antibiotic activity against a variety of gram-negative bacteria including Escherichia coli, Klebsiella pneumoniae, and Pseudomonas aeruginosa. The compounds are useful for treating bacterial infections in animals, including and most preferably humans. Compounds of the invention are tested for in vitro antimicrobial activity using standard testing procedures such as the determination of minimum inhibitory concentration (MIC) by methods described in "Methods for Dilution Antimicrobial Susceptibility Tests for Bacteria That Grow Aerobically" (M7-A) Published December 1985 by the National Committee for Clinical Laboratory Standards, 771 East Lancaster Avenue, Villanova, Pa. 19084. Briefly, MIC values are determined in unsupplemented Mueller Hinton Agar (MHA). The compounds tested are diluted serially into molten MHA at 47 C. The agar is poured into petri dishes and allowed to harden. The various bacteria used for testing are grown overnight on MHA at 35 C. and transferred to Tryptiease Soy Broth (TSB) until a turbidity of 0.5 McFarland standard is obtained. The bacteria are diluted one to twenty in TSB and inoculated on the plates (1 μl using a Steers replicator).

The test system of test [2] is Enterobacter Cloacae 9381. The settings on record: CLOACAE9381, culture 9381, MHA, 35° C., 20 hours, read-out: Minimum Inhibitory Concentration. As for the experimental part: as §1
Test [3] relates to Enterobacter Cloacae 9382. The settings on record: CLOACAE9382, culture 9382, MHA, 35° C., 20 hours, read-out: Minimum Inhibitory Concentration. As for the experimental part: as §1
The subject of a further test is Escherichia Coli 9379. The note with it: COLI9379, culture 9379, MHA, 35° C., 20 hours, read-out: Minimum Inhibitory Concentration. How it is done:
as §1

A further test relates to Escherichia Coli 9380. The note with it: COLI9380, culture 9380, MHA, 35° C., 20 hours, read-out: Minimum Inhibitory Concentration. As for the experimental part: as §1
A further test relates to Escherichia Coli 9451. The settings on record: COLI9451, culture 9451, MHA, 35° C., 20 hours, read-out: Minimum Inhibitory Concentration. As for the experimental part: as §1
The test system of a further test is Klebsiella Oxytoca 9383. The note with it: OXYTOCA9383, culture 9383, MHA, 35° C., 20 hours, read-out: Minimum Inhibitory Concentration. How it is done: as §1
The next test concerns Klebsiella Oxytoca 9384. The settings on record: OXYTOCA9384, culture 9384, MHA, 35° C., 20 hours, read-out: Minimum Inhibitory Concentration. As for the experimental part:
as §1

For the next test, the system named is Klebsiella Pneumoniae 58. The note with it: culture 58, MHA, 35° C., 20 hours, read-out: Minimum Inhibitory Concentration. As for the experimental part: as §1
Another test deals with Proteus Vulgaris 9679. The settings on record: culture 9679, MHA, 35° C., 20 hours, read-out: Minimum Inhibitory Concentration. How it is done: as §1
The subject of test [4] is Pseudomonas Aeruginosa 231. The settings on record: culture 231, MHA, 35° C., 20 hours, read-out: Minimum Inhibitory Concentration. How it is done:
as §1

For test [5], the system named is Pseudomonas Aeruginosa 9191. The settings on record: culture 9191, MHA, 35° C., 20 hours, read-out: Minimum Inhibitory Concentration. As for the experimental part:
as §1

A further test relates to Serratia Marcescens 6888. The note with it: culture 6888, MHA, 35° C., 20 hours, read-out: Minimum Inhibitory Concentration. How it is done: as §1
Test [6] concerns Staphylococcus Aureus 3665. The note with it: AUREUS3665, culture 3665, MHA, 35° C., 20 hours, read-out: Minimum Inhibitory Concentration. As for the experimental part: as §1
Test [7] deals with Staphylococcus Aureus 9218. The settings on record: AUREUS9218, culture 9218, MHA, 35° C., 20 hours, read-out: Minimum Inhibitory Concentration. How it is done: as §1
The test system of test [8] is Staphylococcus Aursus 6685. The settings on record: AURSUS6685, culture 6685, MHA, 35° C., 20 hours, read-out: Minimum Inhibitory Concentration. How it is done:
as §1

The subject of test [9] is Streptococcus Faecalis 694. The settings on record: Enterococcus faecalis, culture 694, MHA, 35° C., 20 hours, read-out: Minimum Inhibitory Concentration. As for the experimental part: as §1
The test system of test [10] is Streptococcus Pneumoniae 41. The note with it: culture 41, MHA, 35° C., 20 hours, read-out: Minimum Inhibitory Concentration. As for the experimental part: as §1
In test [11] the test system is Streptococcus Pyogenes 152. The settings on record: culture 152, MHA, 35° C., 20 hours, read-out: Minimum Inhibitory Concentration. How it is done:
as §1

Converted amounts (≈) assume the structure as drawn.

In the case of `CC(C)(ON=C(C(=O)NC1CN(C(=O)NS(=O)(=O)n2ncn(NC(=O)c3cc(=O)c(O)c[nH]3)c2=O)C1=O)c1csc(N)n1)C(=O)O` (centres unmarked) [Compound U-77938], the MIC was 0.06 µg/mL (≈ 0.0878 µM) in [1]; 16 µg/mL (≈ 23.4 µM) in test [2]; 0.5 µg/mL (≈ 0.731 µM) in test [3]; > 0.015 µg/mL with Escherichia Coli 9379; > 0.015 µg/mL in the test with Escherichia Coli 9380; > 0.015 µg/mL in the test with Escherichia Coli 9451. For the same compound, the MIC is 0.125 µg/mL (≈ 0.183 µM) in the test with Klebsiella Oxytoca 9383; 0.06 µg/mL (≈ 0.0878 µM) with Klebsiella Oxytoca 9384; 0.25 µg/mL (≈ 0.366 µM) with Klebsiella Pneumoniae 58; 0.03 µg/mL (≈ 0.0439 µM) in the test on Proteus Vulgaris 9679; 0.125 µg/mL (≈ 0.183 µM) in [4]; 0.25 µg/mL (≈ 0.366 µM) in test [5]. In addition, the MIC in the test on Serratia Marcescens 6888 was 0.03 µg/mL (≈ 0.0439 µM); in test [6], > 128 µg/mL; in test [7], > 128 µg/mL; in test [8] it was > 128 µg/mL; in test [9] it was > 128 µg/mL; in [10], 128 µg/mL (≈ 187 µM). Moreover, the MIC in test [11] turned out to be 16 µg/mL (≈ 23.4 µM).
On to `Nc1nc(C(=NOCC(=O)O)C(=O)N[C@H]2CN(C(=O)NS(=O)(=O)n3ncn(NC(=O)c4cc(=O)c(O)c[nH]4)c3=O)C2=O)cs1` [Compound U-78284], for which the MIC was 0.06 µg/mL (≈ 0.0915 µM) in test [1]; 16 µg/mL (≈ 24.4 µM) in [2]; 0.25 µg/mL (≈ 0.381 µM) in test [3]; > 0.008 µg/mL in the test on Escherichia Coli 9379; > 0.008 µg/mL in the test with Escherichia Coli 9380; 0.015 µg/mL (≈ 0.0229 µM) in the test on Escherichia Coli 9451. Besides, the MIC is 0.25 µg/mL (≈ 0.381 µM) with Klebsiella Oxytoca 9383; 0.03 µg/mL (≈ 0.0458 µM) in the test on Klebsiella Oxytoca 9384; 0.25 µg/mL (≈ 0.381 µM) in the test with Klebsiella Pneumoniae 58; 0.125 µg/mL (≈ 0.191 µM) with Proteus Vulgaris 9679; 2 µg/mL (≈ 3.05 µM) in test [4]; 2 µg/mL (≈ 3.05 µM) in [5]. Also, the MIC was 0.03 µg/mL (≈ 0.0458 µM) in the test with Serratia Marcescens 6888; > 64 µg/mL in [6]; > 64 µg/mL in test [7]; > 64 µg/mL in test [8]; > 64 µg/mL in test [9]; 64 µg/mL (≈ 97.6 µM) in test [10]. Further, in test [11], the MIC stood at 32 µg/mL (≈ 48.8 µM).
